Results on 20 compounds are retold here after patent US6545151B2, “Pentacyclic compound” (Daiichi Pharmaceutical Co., Ltd., priority 1995, dated 2003).

In brackets after ≈: the same amount, converted by molar mass.

One test has as its system P388. The test is described as follows: MTT cell proliferation test, P388. In kind it is cell-based. The note with it: P388 tumor cell line, cultured for 3 days, absorbance at 540 nm. The method, then:
(§1) Cells of each of three tumor cell lines, P388, PC-6 and PC-12, were inoculated into a 96 well microplate in an inoculum size of 5.0×10^2 cells/150 μl/well (P388), 5.0×10^3 cells/150 μl/well (PC-6) or 1.0×10^3 cells/150 μl/well (PC-12), and 50 μl/well of each sample was added to the plate 2 hours thereafter in the case of P388 or 24 hours thereafter in the case of the other two. Thereafter, the cells were cultured for 3 days and then 5 mg/ml solution of MTT [3-(4,5-dimethylthiazol-2-yl)-2,5-diphenyl-2H-tetrazolium bromide] was dispensed in 20 μl/well portions into wells of the microplate. Four hours thereafter, the culture medium was removed, 150 μl of dimethyl sulfoxide was added to each well and then absorbance at 540 nm was measured. The antitumor effect is shown as GI50 value (ng/ml) of each drug which decreases cell proliferation in each drug-added group to 50% of that in the control group.
Background: Tetrazolium assays rely on reduction of a dye to a coloured formazan, in cell work by metabolically active cells.

The next test relates to PC-6. The test is described as follows: MTT cell proliferation test, PC-6. The note with it: PC-6 tumor cell line, cultured for 3 days, absorbance at 540 nm. Format: cell-based. The protocol:
as §1

The test system of another test is PC-12. The test is described as follows: MTT cell proliferation test, PC-12. The note with it: PC-12 tumor cell line, cultured for 3 days, absorbance at 540 nm. In kind it is cell-based. The method, then: as §1
Test [1] concerns digestive organ cancers, especially large bowel cancers. Conditions: clinical tests; cited from earlier work.

Consider “9β-13-O-[(2R,3R)-3-(tert-Butoxycarbonylamino)-3-(2-furyl)-2-hydroxypropionyl]-10-deacetyl-7-deoxy-9-dihydro-9,10-O-(2-dimethylaminoethylidene)baccatin III [Inventive Example 105]”, for which the values for the GI50 value in the test with P388, in the test with PC-6 and in the test on PC-12 were 0.0475 ng/mL, 0.190 ng/mL and 0.0643 ng/mL, respectively.
As to `CC(=O)O[C@@]12CO[C@@H]1C[C@H](O)[C@@]1(C)C(=O)[C@H](O)C3=C(C)[C@@H](OC(=O)[C@H](O)[C@@H](NC(=O)OC(C)(C)C)c4ccccc4)C[C@@](O)([C@@H](OC(=O)c4ccccc4)[C@H]21)C3(C)C` [Taxotere, reference compound], the GI50 value with P388 was determined as 1.62 ng/mL (≈ 2.01 nM); in the test with PC-6, 1.16 ng/mL (≈ 1.44 nM); in the test with PC-12 it was 19.1 ng/mL (≈ 23.6 nM). For the same compound, in test [1], the “efficacy on digestive organ cancers, especially large bowel cancers” value is listed as “low efficacy”.
As for “9β-4-O-Butanoyl-13-O-[(2R,3R)-3-(tert-butoxycarbonylamino)-3-(2-furyl)-2-hydroxypropionyl]-4,10-dideacetyl-9-dihydro-9,10-O-(2-morpholinoethylidene)baccatin III [Inventive Example 22]”, the GI50 value in the test on P388 is 0.0193 ng/mL; with PC-6, 0.187 ng/mL; with PC-12, 0.181 ng/mL.
Regarding “9β-13-O-[(2R,3R)-3-(tert-Butoxycarbonylamino)-3-(2-furyl)-2-hydroxypropionyl]-4-O-cyclopropanecarbonyl-7-deoxy-4,10-dideacetyl-6,7-didehydro-9-dihydro-9,10-O-(2-morpholinoethylidene)baccatin III [Inventive Example 123]”, the GI50 value amounted to 0.0158 ng/mL in the test on P388, 0.366 ng/mL in the test with PC-6 and 0.167 ng/mL with PC-12.
On to “9β-13-O-[3-(tert-Butoxycarbonylamino)-2-hydroxy-2-methyl-3-(4-pyridyl)propionyl]-4-O-cyclopropanecarbonyl-4,10-dideacetyl-7-deoxy-9-dihydro-9,10-O-isopropylidenebaccatin III [Inventive Example 65]”, for which the GI50 value in the test on P388 amounted to 0.00509 ng/mL; with PC-6, 0.278 ng/mL; in the test on PC-12, 0.0684 ng/mL.
With “9β-13-O-[3-(tert-Butoxycarbonylamino)-2-hydroxy-2-methyl-3-(4-pyridyl)propionyl]-4-O-cyclopropanecarbonyl-4,10-dideacetyl-9-dihydro-9,10-O-isopropylidenebaccatin III [Inventive Example 60]”, the GI50 value in the test with P388 amounted to 0.0129 ng/mL; in the test on PC-6 it was 0.395 ng/mL; with PC-12, 0.0698 ng/mL.
The matching figures for “9β-13-O-[(2R,3R)-3-(tert-Butoxycarbonylamino)-2-hydroxy-3-(2-thienyl)propionyl]-10-deacetyl-7-deoxy-9-dihydro-9,10-O-(2-morpholinoethylidene)baccatin III [Inventive Example 98]”: 0.0126 ng/mL, 0.0696 ng/mL and 0.022 ng/mL.
On to `CC(=O)O[C@H]1C(=O)[C@@]2(C)[C@H]([C@H](OC(=O)c3ccccc3)[C@]3(O)C[C@H](OC(=O)[C@H](O)[C@@H](NC(=O)c4ccccc4)c4ccccc4)C(C)=C1C3(C)C)[C@]1(OC(C)=O)CO[C@@H]1C[C@@H]2O` [Taxol, reference compound], for which the GI50 value in the test with P388 was 4.36 ng/mL (≈ 5.11 nM); in the test on PC-6, 1.20 ng/mL (≈ 1.41 nM); in the test on PC-12, 82.2 ng/mL (≈ 96.3 nM). The “efficacy on digestive organ cancers, especially large bowel cancers” value in test [1] is given as “low efficacy”.
For the compound “9β-13-O-[(2R,3S)-3-(tert-Butoxycarbonylamino)-2-hydroxy-3-(4-pyridyl)propionyl]-4-O-cyclopropanecarbonyl-4,10-dideacetyl-7-deoxy-9-dihydro-9,10-O-isopropylidenebaccatin III [Inventive Example 70]”, the GI50 value in the test with P388 was determined as 0.00137 ng/mL; in the test with PC-6, 0.160 ng/mL; in the test with PC-12, 0.0184 ng/mL.
The matching figures for “7α,9β-4-O-Butanoyl-13-O-[(2R,3R)-3-(tert-butoxycarbonylamino)-3-(2-furyl)-2-hydroxypropionyl]-7-deoxy-4,10-dideacetyl-9-dihydro-7-fluoro-9,10-O-(2-morpholinoethylidene)baccatin III [Inventive Example 81]”: 0.0048 ng/mL, 0.0604 ng/mL and 0.050 ng/mL.
The matching figures for “9β-13-O-[3-(tert-Butoxycarbonylamino)-2-hydroxy-2-methyl-3-(4-pyridyl)propionyl]-10-deacetyl-7-deoxy-9-dihydro-9,10-O-isopropylidenebaccatin III [Inventive Example 95]”: 0.0034 ng/mL, 0.0992 ng/mL and 0.0121 ng/mL.
For “9β-13-O-[3-(tert-Butoxycarbonylamino)-3-(2-furyl)-2-hydroxy-2-methylpropionyl]-4-O-cyclopropanecarbonyl-4,10-dideacetyl-9-dihydro-9,10-O-(2-morpholinoethylidene)baccatin III [Inventive Example 57]”, in that order: 0.0135 ng/mL, 0.734 ng/mL and 0.0739 ng/mL.
“9β-13-O-[3-(tert-Butoxycarbonylamino)-2-hydroxy-2-methyl-3-(4-pyridyl)propionyl]-4,10-dideacetyl-9-dihydro-4-O-ethoxycarbonyl-9,10-O-isopropylidenebaccatin III [Inventive Example 101]”: the results for the GI50 value in the test on P388, in the test on PC-6 and with PC-12 were 0.0301 ng/mL, 0.409 ng/mL and 0.125 ng/mL, respectively.
The matching figures for “9β-13-O-[(2R,3S)-3-(tert-Butoxycarbonylamino)-2-hydroxy-3-(2-pyridyl)propionyl]-4-O-cyclopropanecarbonyl-4,10-dideacetyl-9-dihydro-9,10-O-isopropylidenebaccatin III [Inventive Example 69]”: 0.0161 ng/mL, 0.0915 ng/mL and 0.0466 ng/mL.
As for “9β-13-O-[(2R,3S)-3-(tert-Butoxycarbonylamino)-2-hydroxy-3-phenylpropionyl]-4-O-cyclopropanecarbonyl-4,10-dideacetyl-9-dihydro-9,10-O-(2-morpholinoethylidene)baccatin III [Inventive Example 53]”, the figures for the GI50 value in the test on P388, with PC-6 and in the test with PC-12 were 0.0128 ng/mL, 0.874 ng/mL and 0.0758 ng/mL, respectively.
For “9β-13-O-[3-(tert-Butoxycarbonylamino)-2-hydroxy-2-methyl-3-(4-pyridyl)propionyl]-4-O-cyclopropanecarbonyl-7-deoxy-4,10-dideacetyl-6,7-didehydro-9-dihydro-9,10-O-isopropylidenebaccatin III [Inventive Example 121]”, the GI50 value in the test on P388 was 0.00173 ng/mL; with PC-6 it was 0.803 ng/mL; in the test on PC-12 it was 0.0498 ng/mL.
For “9β-13-O-[3-(tert-Butoxycarbonylamino)-2-hydroxy-2-methyl-3-(4-pyridyl)propionyl]-4,10-dideacetyl-9-dihydro-9,10-O-isopropylidene-4-O-propionylbaccatin III [Inventive Example 90]”, in that order: 0.0519 ng/mL, 0.209 ng/mL and 0.0943 ng/mL.
The matching figures for “9β-13-O-[(2R,3R)-3-(tert-Butoxycarbonylamino)-3-(2-furyl)-2-hydroxypropionyl]-4,10-dideacetyl-9-dihydro-9,10-O-(2-morpholinoethylidene)-4-O-propionylbaccatin III [Inventive Example 25]”: 0.0549 ng/mL, 1.31 ng/mL and 0.234 ng/mL.
For “9β-13-O-[(2R,3R)-3-(tert-Butoxycarbonylamino)-3-(2-furyl)-2-hydroxypropionyl]-4-O-cyclopropanecarbonyl-4,10-dideacetyl-9-dihydro-9,10-O-(2-morpholinoethylidene)baccatin III [Inventive Example 51]”, in that order: 0.00754 ng/mL, 0.354 ng/mL and 0.0669 ng/mL.
For “9β-13-O-[(2R,3R)-3-(tert-Butoxycarbonylamino)-3-(2-furyl)-2-hydroxypropionyl]-10-deacetyl-7-deoxy-9-dihydro-9,10-O-(2-morpholinoethylidene)baccatin III [Inventive Example 79]”, the GI50 value stood at 0.00689 ng/mL in the test with P388, 0.0673 ng/mL in the test with PC-6 and 0.0264 ng/mL in the test on PC-12.
